How the values were obtained:
L1210 [1] = test: Antitumor activity against mouse L1210 cells allografted in CDF1 mouse at 100 mg/kg, ip administered from day 1 to day 9 relative to control; format: functional; conditions: route intraperitoneal
[2] = Antitumor activity against mouse ependymoblastoma cells allografted in […] mouse at 100 mg/kg, ip administered from day 1 to day 5 relative to control; format: functional; conditions: route intraperitoneal
L1210 [3] = test: Antitumor activity against mouse L1210 cells allografted in CDF1 mouse at 50 mg/kg, ip administered from day 1 to day 9 relative to control; format: functional; conditions: route intraperitoneal
L1210 [4] = test: Antitumor activity against mouse L1210 cells allografted in CDF1 mouse at 200 mg/kg, ip administered from day 1 to day 9 relative to control; format: functional; conditions: route intraperitoneal
Mus musculus = test: Toxicity in […] mouse allografted with mouse ependymoblastoma cells at 400 mg/kg, ip administered from day 1 to day 5 relative to control; format: organism-based; parameters: dose 400 mg/kg, route intraperitoneal; conditions: in vivo
[5] = Antitumor activity against mouse ependymoblastoma cells allografted in […] mouse at 50 mg/kg, ip administered from day 1 to day 5 relative to control; format: functional; conditions: route intraperitoneal
[6] = Antitumor activity against mouse ependymoblastoma cells allografted in […] mouse at 200 mg/kg, ip administered from day 1 to day 5 relative to control; format: functional; conditions: route intraperitoneal
L1210 [7] = test: Antitumor activity against mouse L1210 cells allografted in CDF1 mouse at 66 mg/kg, ip administered from day 1 to day 9 relative to control; format: functional; conditions: route intraperitoneal
[8] = Antitumor activity against mouse ependymoblastoma cells allografted in C57BL/6 mouse at 100 mg/kg, ip administered from day 1 to day 5 relative to control; format: functional; conditions: route intraperitoneal
L1210 [9] = test: Antitumor activity against mouse L1210 cells allografted in CDF1 mouse at 44 mg/kg, ip administered from day 1 to day 9 relative to control; format: functional; conditions: route intraperitoneal
L1210 [10] = test: Antitumor activity against mouse L1210 cells allografted in CDF1 mouse at 29 mg/kg, ip administered from day 1 to day 9 relative to control; format: functional; conditions: route intraperitoneal
[11] = Antitumor activity against mouse ependymoblastoma cells allografted in C57BL/6 mouse at 130 mg/kg, ip administered from day 1 to day 5 relative to control; format: functional; conditions: route intraperitoneal

| Structure (SMILES) | T/C (L1210 [1]) [%] | T/C [2] [%] | T/C (L1210 [3]) [%] | T/C (L1210 [4]) [%] | Activity (Mus musculus) | T/C [5] [%] | T/C [6] [%] | T/C (L1210 [7]) [%] | T/C [8] [%] | T/C (L1210 [9]) [%] | T/C (L1210 [10]) [%] | T/C [11] [%] |
| --- | --- | --- | --- | --- | --- | --- | --- | --- | --- | --- | --- | --- |
| CN(N=O)C(=O)NC[C@H]1O[C@@](CNC(=O)N(C)N=O)(O[C@H]2O[C@H](CNC(=O)N(C)N=O)[C@@H](O)[C@H](O)[C@H]2O)[C@@H](O)[C@@H]1O | 117 | 120 | 110 | 137 | Non-toxic | 97 | 133 | – | – | – | – | – |
| CN(N=O)C(=O)NC[C@H]1O[C@@](CO)(O[C@H]2O[C@H](CNC(=O)N(C)N=O)[C@@H](O)[C@H](O)[C@H]2O)[C@@H](O)[C@@H]1O | 129 | 97 | 107 | 137 | Toxic | 111 | 148 | – | – | – | – | – |
| CC(=O)OC[C@@]1(O[C@H]2O[C@H](CNC(=O)N(C)N=O)[C@@H](OC(C)=O)[C@H](OC(C)=O)[C@H]2OC(C)=O)O[C@H](CNC(=O)N(C)N=O)[C@@H](OC(C)=O)[C@@H]1OC(C)=O | 105 | – | 109 | 119 | – | – | – | – | – | – | – | – |
| CC(=O)O[C@@H]1[C@@H](OC(C)=O)[C@@H](O[C@]2(CNC(=O)N(C)N=O)O[C@H](CNC(=O)N(C)N=O)[C@@H](OC(C)=O)[C@@H]2OC(C)=O)O[C@H](CNC(=O)N(C)N=O)[C@H]1OC(C)=O | 102 | – | 104 | 120 | – | – | – | – | – | – | – | – |
| CN(N=O)C(=O)N[C@@H](C=O)[C@@H](O)[C@H](O)[C@H](O)CO [STREPTOZOCIN] | 107 | – | – | – | – | – | – | 109 | 144 | 137 | 117 | 127 |

Source: ChEMBL document CHEMBL3272066, “Synthesis of nitrosourea derivatives of sucrose as central nervous system anticancer agents” (J Med Chem, 1977)
